≈ marks a conversion by molar mass, not a printed value. Like-named read-outs stand apart in the source and are kept apart here.
Legend:
E. coli GN5482 = assay: agar plate dilution method, MIC against E. coli GN5482; assay type: cell-based; conditions: Escherichia coli; E. coli GN5482 (lactamase-producing strain); 10^6 CFU/ml, 37° C., 16 hours; read-out: Minimum Inhibitory Concentration (MIC)
Method: (§1) The in vitro antibacterial activities of the compounds of the present invention against various microorganisms, were measured by the following agar plate dilution method. One platinum loopfull of each test microorganism incubated overnight in Mueller Hinton broth, was inoculated to Mueller Hinton agar (inoculum size: 10^6 CFU/ml) Such culture media containing various antibiotics in various concentrations were prepared After incubation at 37° C. for 16 hours, the minimum inhibitory concentrations (MIC: μg/ml) were measured. As comparative compounds, cefotaxime, oeftazidime and the compounds disclosed in Example 2 of Japanese Unexamined Patent Publication No. 215690/1985 e.g. sodium 7-[2-(2-aminothiazol-4-yl)-2-ethoxyiminoacetamido]-3-(1-carboxylatemethylpyridinio-4-yl)thiomethyl-3-cephem-4-carboxylate (hereinafter referred to simply as "Reference Example A") were employed.

S. epidermidis IAM12012 = assay: agar plate dilution method, MIC against S. epidermidis IAM12012; assay type: cell-based; conditions: Staphylococcus epidermidis, read-out: Minimum Inhibitory Concentration (MIC)
Method: as §1

Ps. aeruginosa AK 109 = assay: agar plate dilution method, MIC against Ps. aeruginosa AK 109; assay type: cell-based; conditions: Pseudomonas aeruginosa, AK109, 16 h, read-out: Minimum Inhibitory Concentration (MIC)
Method: as §1

P. vulgaris No. 33 = assay: agar plate dilution method, MIC against P. vulgaris No. 33; assay type: cell-based; conditions: Proteus vulgaris; P. vulgaris No. 33 (lactamase-producing strain); 10^6 CFU/ml, 37° C., 16 hours; read-out: Minimum Inhibitory Concentration (MIC)
Method: as §1

Ps. maltophilia GN 12873 = assay: agar plate dilution method, MIC against Ps. maltophilia GN 12873; assay type: cell-based, Pseudomonas maltophilia; conditions: Stenotrophomonas maltophilia, GN12873; Ps. maltophilia GN 12873 (lactamase-producing strain); 10^6 CFU/ml, 37° C., 16 hours; read-out: Minimum Inhibitory Concentration (MIC)
Method: as §1

E. cloacae 963 = assay: agar plate dilution method, MIC against E. cloacae 963; assay type: cell-based; conditions: read-out: Minimum Inhibitory Concentration (MIC)
Method: as §1

K. pneumoniae PCI-602 = assay: agar plate dilution method, MIC against K. pneumoniae PCI-602; assay type: cell-based; conditions: Klebsiella pneumoniae, PCI602, 16 h, read-out: Minimum Inhibitory Concentration (MIC)
Method: as §1

M. morganii GN5407 = assay: agar plate dilution method, MIC against M. morganii GN5407; assay type: cell-based; conditions: Morganella morganii; M. morganii GN5407 (lactamase-producing strain); 10^6 CFU/ml, 37° C., 16 hours; read-out: Minimum Inhibitory Concentration (MIC)
Method: as §1

Ps. cepacia 23 = assay: agar plate dilution method, MIC against Ps. cepacia 23; assay type: cell-based, Pseudomonas cepacia; conditions: read-out: Minimum Inhibitory Concentration (MIC)
Method: as §1

S. marcescens No. 16-2 = assay: agar plate dilution method, MIC against S. marcescens No. 16-2; assay type: cell-based; conditions: Serratia marcescens, NO.162, 16 h, read-out: Minimum Inhibitory Concentration (MIC)
Method: as §1

S. aureus 209P NIHJ-JC1 = assay: agar plate dilution method, MIC against S. aureus 209P NIHJ-JC1; assay type: cell-based; conditions: Staphylococcus aureus, read-out: Minimum Inhibitory Concentration (MIC)
Method: as §1

Ps. aeruginosa IFO3445 = assay: agar plate dilution method, MIC against Ps. aeruginosa IFO3445; assay type: cell-based; conditions: Pseudomonas aeruginosa, IFO3445, 16 h, read-out: Minimum Inhibitory Concentration (MIC)
Method: as §1

E. coli NIHJ JC2 = assay: agar plate dilution method, MIC against E. coli NIHJ JC2; assay type: cell-based; conditions: Escherichia coli, read-out: Minimum Inhibitory Concentration (MIC)
Method: as §1

E. coli CSH(RE45) = assay: agar plate dilution method, MIC against E. coli CSH(RE45); assay type: cell-based; conditions: Escherichia coli, 16 h, read-out: Minimum Inhibitory Concentration (MIC)
Method: as §1

K. pneumoniae No. 42 = assay: agar plate dilution method, MIC against K. pneumoniae No. 42; assay type: cell-based; conditions: Klebsiella pneumoniae; K. pneumoniae No. 42 (lactamase-producing strain); 10^6 CFU/ml, 37° C., 16 hours; read-out: Minimum Inhibitory Concentration (MIC)
Method: as §1

K. oxytoca GN10650 = assay: agar plate dilution method, MIC against K. oxytoca GN10650; assay type: cell-based; conditions: Klebsiella oxytoca, read-out: Minimum Inhibitory Concentration (MIC)
Method: as §1

E. coli CSH2 (RK1) = assay: agar plate dilution method, MIC against E. coli CSH2 (RK1); assay type: cell-based; conditions: Escherichia coli, 16 h, read-out: Minimum Inhibitory Concentration (MIC)
Method: as §1

S. aureus JS1 = assay: agar plate dilution method, MIC against S. aureus JS1; assay type: cell-based; conditions: Staphylococcus aureus, read-out: Minimum Inhibitory Concentration (MIC)
Method: as §1

C. freundii GN346 = assay: agar plate dilution method, MIC against C. freundii GN346; assay type: cell-based; conditions: Citrobacter freundii; C. freundii GN346 (lactamase-producing strain); 10^6 CFU/ml, 37° C., 16 hours; read-out: Minimum Inhibitory Concentration (MIC)
Method: as §1

C. freundii GN346/16 = assay: agar plate dilution method, MIC against C. freundii GN346/16; assay type: cell-based; conditions: Citrobacter freundii, read-out: Minimum Inhibitory Concentration (MIC)
Method: as §1

S. marcescens IAM 1184 = assay: agar plate dilution method, MIC against S. marcescens IAM 1184; assay type: cell-based; conditions: Serratia marcescens, IAM1184; S. marcescens IAM 1184; 10^6 CFU/ml, 37° C., 16 hours; read-out: Minimum Inhibitory Concentration (MIC)
Method: as §1

Ps. aeruginosa AKR17 = assay: agar plate dilution method, MIC against Ps. aeruginosa AKR17; assay type: cell-based; conditions: Pseudomonas aeruginosa; Ps. aeruginosa AKR17; 10^6 CFU/ml, 37° C., 16 hours; read-out: Minimum Inhibitory Concentration (MIC)
Method: as §1

E. cloacae Nek 39 = assay: agar plate dilution method, MIC against E. cloacae Nek 39; assay type: cell-based; conditions: Enterobacter cloacae, NEK39; E. cloacae Nek 39 (lactamase-producing strain); 10^6 CFU/ml, 37° C., 16 hours; read-out: Minimum Inhibitory Concentration (MIC)
Method: as §1

M. luteus ATCC9341 = assay: agar plate dilution method, MIC against M. luteus ATCC9341; assay type: cell-based; conditions: Micrococcus luteus, read-out: Minimum Inhibitory Concentration (MIC)
Method: as §1

A. calcoaceticus No. 4 = assay: agar plate dilution method, MIC against A. calcoaceticus No. 4; assay type: cell-based; conditions: Acinetobacter calcoaceticus, read-out: Minimum Inhibitory Concentration (MIC)
Method: as §1

P. vulgaris HX-19 = assay: agar plate dilution method, MIC against P. vulgaris HX-19; assay type: cell-based; conditions: Proteus vulgaris, read-out: Minimum Inhibitory Concentration (MIC)
Method: as §1

S. aureus BB5703 = assay: agar plate dilution method, MIC against S. aureus BB5703; assay type: cell-based; conditions: Staphylococcus aureus, read-out: Minimum Inhibitory Concentration (MIC)
Method: as §1

Row | Structure (SMILES) | MIC (E. coli GN5482) | MIC (Ps. aeruginosa AK 109) | MIC (P. vulgaris No. 33) | MIC (Ps. maltophilia GN 12873) | MIC (K. pneumoniae PCI-602) | MIC (M. morganii GN5407) | MIC (S. marcescens No. 16-2) | MIC (Ps. aeruginosa IFO3445) | MIC (E. coli CSH(RE45)) | MIC (K. pneumoniae No. 42) | MIC (E. coli CSH2 (RK1)) | MIC (C. freundii GN346) | MIC (S. marcescens IAM 1184) | MIC (Ps. aeruginosa AKR17) | MIC (E. cloacae Nek 39) | further results
1 | Nc1nc(/C(=N/OC(C(=O)O)c2ccccc2)C(=O)NC2C(=O)N3C(C(=O)[O-])=C(CSc4cc[n+](CC(=O)O)cc4)CSC23)cs1 (stereo not drawn) [Example 3, disodium 7-[2-(2-aminothiazol-4-yl)-2-(α-carboxylatebenzyloxyimino)acetamide]-3-(1-caboxylatemethylpyridinio-4-yl)thiomethyl-3-cephem-4-carboxylate (syn-isomer)] | 0.78 µg/mL | 6.25 µg/mL | 0.1 µg/mL | > 100 µg/mL | < 0.006 µg/mL | 0.78 µg/mL | 6.25 µg/mL | 3.12 µg/mL | 0.78 µg/mL | 1.56 µg/mL | 0.78 µg/mL | 100 µg/mL | 0.39 µg/mL | > 100 µg/mL | 6.25 µg/mL | MIC (S. epidermidis IAM12012; IAM12012, 16 h): 6.25 µg/mL; MIC (E. cloacae 963; Enterobacter cloacae, 963, 16 h): 1.56 µg/mL; MIC (Ps. cepacia 23; Burkholderia cepacia, 23, 16 h): 3.12 µg/mL; MIC (S. aureus 209P NIHJ-JC1; 16 h): 12.5 µg/mL; MIC (E. coli NIHJ JC2; NIHJJC2, 16 h): 1.56 µg/mL; MIC (K. oxytoca GN10650; K. oxytoca GN10650 (lactamase-producing strain), 10^6 CFU/ml, 37° C., 16 hours): 0.78 µg/mL; MIC (S. aureus JS1; S. aureus JS1 (methicilline resistant; lactamase-producing strain), 10^6 CFU/ml, 37° C., 16 hours): 50 µg/mL; MIC (C. freundii GN346/16; GN346, 16 h): 1.56 µg/mL; MIC (M. luteus ATCC9341; ATCC9341, 16 h): 3.12 µg/mL; MIC (A. calcoaceticus No. 4; A. calcoaceticus No. 4, 10^6 CFU/ml, 37° C., 16 hours): 50 µg/mL; MIC (P. vulgaris HX-19; HX19, P. vulgaris HX-19, 10^6 CFU/ml, 37° C., 16 hours): 0.0125 µg/mL; MIC (S. aureus BB5703; S. aureus BB5703, 10^6 CFU/ml, 37° C., 16 hours): 25 µg/mL
2 | Nc1nc(C(=NOCc2ccc(O)c(O)c2)C(=O)NC2C(=O)N3C(C(=O)[O-])=C(CSc4cc[n+](CC(=O)O)cc4)CSC23)cs1 (stereo not drawn) [Example 4, 7-[2-(2-aminothiazol-4-yl)-2-(3,4-dihydroxybenzyloxyimino)acetamido]-3-(1-carboxymethylpyridinio-4-yl)thiomethyl-3-cephem-4-carboxylate (syn-isomer)] | 0.39 µg/mL (≈ 0.58 µM) | 1.56 µg/mL (≈ 2.32 µM) | 0.2 µg/mL (≈ 0.297 µM) | > 100 µg/mL | < 0.006 µg/mL | 0.1 µg/mL (≈ 0.149 µM) | 6.25 µg/mL (≈ 9.29 µM) | 3.12 µg/mL (≈ 4.64 µM) | 0.025 µg/mL (≈ 0.0372 µM) | 0.2 µg/mL (≈ 0.297 µM) | 0.05 µg/mL (≈ 0.0743 µM) | 6.25 µg/mL (≈ 9.29 µM) | 0.1 µg/mL (≈ 0.149 µM) | > 100 µg/mL | 0.78 µg/mL (≈ 1.16 µM) | MIC (S. epidermidis IAM12012; S. epidermidis IAM12012, 10^6 CFU/ml, 37° C., 16 hours): 0.78 µg/mL (≈ 1.16 µM); MIC (E. cloacae 963; Enterobacter cloacae, E. cloacae 963, 10^6 CFU/ml, 37° C., 16 hours): 0.1 µg/mL (≈ 0.149 µM); MIC (Ps. cepacia 23; Burkholderia cepacia, Ps. cepacia 23, 10^6 CFU/ml, 37° C., 16 hours): 0.39 µg/mL (≈ 0.58 µM); MIC (S. aureus 209P NIHJ-JC1; S. aureus 209P NIHJ-JC1, 10^6 CFU/ml, Mueller Hinton agar, 37° C., 16 hours): 0.39 µg/mL (≈ 0.58 µM); MIC (E. coli NIHJ JC2; NIHJJC2, E. coli NIHJ JC2, 10^6 CFU/ml, 37° C., 16 hours): 0.05 µg/mL (≈ 0.0743 µM); MIC (K. oxytoca GN10650; GN10650, 16 h): 0.78 µg/mL (≈ 1.16 µM); MIC (S. aureus JS1; JS1, 16 h): 6.25 µg/mL (≈ 9.29 µM); MIC (C. freundii GN346/16; C. freundii GN346/16, 10^6 CFU/ml, 37° C., 16 hours): 0.2 µg/mL (≈ 0.297 µM); MIC (M. luteus ATCC9341; M. luteus ATCC9341, 10^6 CFU/ml, 37° C., 16 hours): 0.39 µg/mL (≈ 0.58 µM); MIC (A. calcoaceticus No. 4; NO.4, 16 h): 1.56 µg/mL (≈ 2.32 µM); MIC (P. vulgaris HX-19; HX19, 16 h): 0.025 µg/mL (≈ 0.0372 µM); MIC (S. aureus BB5703; BB5703, 16 h): 3.12 µg/mL (≈ 4.64 µM)

From patent US4988687A, “Cephalosporin derivatives, and antibacterial agents” (priority 1986, dated 1991)
